Test results from the supplement of paper PMC10307832.

How the values were obtained:
Assay in all cases: relative viability (nuclei count vs DMSO), 5 days (fraction); higher = more cells survive
[1] = compound: C=CCn1c(=O)c2cnc(Nc3ccc(N4CCN(C)CC4)cc3)nc2n1-c1cccc(C(C)(C)O)n1 [Adavosertib] + COc1cc2c(Oc3ccc(NC(=O)C4(C(=O)Nc5ccc(F)cc5)CC4)cc3F)ccnc2cc1OCCCN1CCOCC1 [Foretinib] (partner 0.25 µM)
Summary of the method: (§1)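 Lung cancer cell lines were pin-tool dosed in 1536-well plates on the day after seeding, with either a lone drug or a fixed anchor-drug dose plus five library-drug doses (not always all listed) in √10 steps. Nuclei were counted on 4× images after 5 days. Relative viability is the ratio of treated-well to vehicle-well nuclei counts, with each value a median of duplicate plates.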

[2] = compound: C=CCn1c(=O)c2cnc(Nc3ccc(N4CCN(C)CC4)cc3)nc2n1-c1cccc(C(C)(C)O)n1 [Adavosertib] + Nc1ncn([C@H]2C[C@H](O)[C@@H](CO)O2)c(=O)n1 [Decitabine] (partner 2 µM)
Summary of the method: as §1

[3] = compound: C=CCn1c(=O)c2cnc(Nc3ccc(N4CCN(C)CC4)cc3)nc2n1-c1cccc(C(C)(C)O)n1 [Adavosertib] + O=C(CCCCCCC(=O)Nc1ccccc1)NO [Vorinostat] (partner 1 µM)
Summary of the method: as §1

[4] = compound: COc1nc(N)nc2c1ncn2[C@@H]1O[C@H](CO)[C@@H](O)[C@@H]1O [Nelarabine] + CC1(C)CCC(c2ccc(Cl)cc2)=C(CN2CCN(c3ccc(C(=O)NS(=O)(=O)c4ccc(N[C@H](CCN5CCOCC5)CSc5ccccc5)c(S(=O)(=O)C(F)(F)F)c4)cc3)CC2)C1 [Navitoclax] (partner 0.5 µM)
Summary of the method: as §1

Cell Line	relative viability ([1]; first compound 0.01 µM)	relative viability ([1]; first compound 0.03162 µM)	relative viability ([1]; first compound 0.3162 µM)	relative viability ([2]; first compound 0.01 µM)	relative viability ([2]; first compound 0.03162 µM)	relative viability ([2]; first compound 0.1 µM)	relative viability ([2]; first compound 0.3162 µM)	relative viability ([3]; first compound 0.01 µM)	relative viability ([3]; first compound 0.03162 µM)	relative viability ([3]; first compound 0.1 µM)	relative viability ([3]; first compound 0.3162 µM)	relative viability ([4]; first compound 0.01 µM)	relative viability ([4]; first compound 0.03162 µM)	relative viability ([4]; first compound 0.1 µM)	relative viability ([4]; first compound 0.3162 µM)	relative viability ([4]; first compound 1 µM)	relative viability ([1]; first compound 0.1 µM)
201T	1.28	1.14	1.23	0.851	0.877	0.898	0.971	0.953	1.01	0.95	1.05	1.15	1.18	1.18	1.15	1.16	–
A549	1.04	0.984	0.838	0.28	0.257	0.298	0.291	–	–	–	–	1.56	1.29	1.24	1.17	1.18	1.24
A-427	0.929	1.02	0.851	0.53	0.554	0.55	0.469	0.872	0.865	0.831	0.705	1.05	1.02	0.916	0.897	0.912	1.09
ABC-1	0.909	1.31	1.03	1.28	1.04	1.17	0.959	1.17	1.26	1.1	1.44	–	–	–	–	–	1.39
BEN	0.523	0.682	0.695	0.684	0.69	0.768	0.783	0.628	0.553	0.669	0.592	0.0794	0.0676	0.187	0.0641	0.0472	0.566
CAL-12T	1.12	1.09	1.09	–	–	–	–	0.797	0.889	0.821	0.741	1.37	1.11	1.31	1.41	1.14	1.16
COR-L23	1.02	0.997	0.644	0.45	0.523	0.45	0.277	0.486	0.406	0.386	0.166	1.4	1.14	1.09	1.04	0.977	1.08
COR-L 105	0.781	0.872	0.925	0.691	0.6	0.618	0.651	0.892	0.848	0.898	0.677	0.936	0.956	0.733	0.819	0.795	1.24
Calu-6	0.905	0.956	0.311	–	–	–	–	–	–	–	–	1.17	–	0.892	0.851	0.909	0.91
ChaGo-K-1	0.856	0.951	1.02	0.554	0.518	0.469	0.534	0.747	0.74	0.779	0.741	1.03	1.02	1.48	0.936	1.07	0.941
EBC-1	0.111	0.101	0.0875	–	–	–	–	–	–	–	–	0.403	0.261	0.375	0.432	0.381	0.115
EKVX	0.743	1.15	0.748	0.329	0.388	0.383	0.4	0.843	0.718	0.697	0.682	1.14	0.897	0.856	1.08	0.982	0.755
EMC-BAC-2	1.08	1.01	0.949	–	0.997	1.08	1.04	–	0.536	0.431	0.396	1.45	1.11	1.25	1.38	1.16	0.995
EPLC-272H	0.674	0.681	0.247	0.355	0.344	0.448	0.308	0.384	0.481	0.281	0.14	1.33	1.35	1.43	0.954	1.08	0.591
H3255	0.892	0.851	1.04	0.636	0.694	0.609	0.674	0.763	0.908	0.828	1	0.59	0.486	0.625	0.6	0.622	0.921
HARA	0.977	0.892	0.335	0.486	0.554	0.473	0.423	0.485	0.629	0.592	0.587	1.17	1.08	1.07	1.22	1.06	0.84
HCC-15	1.04	0.936	1.25	0.714	0.719	0.667	0.858	0.908	0.823	0.86	0.829	0.794	0.633	0.686	0.724	0.705	1.2
HCC-44	–	–	–	0.935	0.935	0.975	1	1.09	1.06	1.09	1.07	1.27	1.09	0.985	1.05	0.966	–
HCC-78	0.54	0.628	0.628	0.661	0.679	0.731	0.618	0.492	0.437	0.473	0.42	0.96	0.925	–	0.955	0.901	0.587
HCC-366	0.96	0.935	1.04	0.369	0.35	0.377	0.277	0.353	0.411	0.319	0.219	1.55	1.03	1.22	1.2	1	0.924
HCC-827	1.07	1.09	0.929	0.15	0.344	0.341	0.214	0.716	0.868	0.873	0.885	1.02	0.886	0.91	0.797	0.705	1.09
